This passage reports EC50 results from ChEMBL document CHEMBL1629703, “Novel hepatitis C virus reporter replicon cell lines enable efficient antiviral screening against genotype 1a” (Antimicrob Agents Chemother, 2010).

Assay [1] relates to Hepatitis C virus. Nature of the assay: Antiviral activity against Hepatitis C virus genotype 1b in luciferase encoding genotype 1b replicons after 3 days by luciferase reporter assay. The following applies: 72 h. It is filed as functional, organism-based, Hepacivirus hominis.
Assay [2] relates to Hepatitis C virus. Briefly: Antiviral activity against Hepatitis C virus genotype 1a in luciferase encoding genotype 1a replicons after 3 days by luciferase reporter assay. It counts as functional, organism-based, Hepacivirus hominis. The following applies: subtype 1a, 72 h. A general note: Replicon systems follow genome replication, usually without infectious particles.

Structures are written as SMILES. pEC50: −log10 of the molar value.

A word on the pEC50: it is the EC50 on a negative log10 scale, so that one unit is a factor of ten. Read a high pEC50 as a small EC50.

Consider `CCC[C@H](NC(=O)[C@@H]1[C@H]2CCC[C@H]2CN1C(=O)[C@@H](NC(=O)[C@@H](NC(=O)c1cnccn1)C1CCCCC1)C(C)(C)C)C(=O)C(=O)NC1CC1` [TELAPREVIR], for which the pEC50 was 5.77 in assay [1] and 5.90 in assay [2].

Consider `CNC(=O)c1c(-c2ccc(F)cc2)oc2cc(N(CCO)S(C)(=O)=O)c(C3CC3)cc12` [NESBUVIR], for which the values for the pEC50 in assay [1] and in assay [2] were 7.66 and 7.35, respectively.

As to `C[C@@]1(O)[C@H](O)[C@@H](CO)O[C@H]1n1cnc2c(N)ncnc21`, the negative-log EC50 (pEC50) was 6.21 in assay [1] and 6.13 in assay [2].

`COc1ccc2c(O[C@@H]3C[C@H]4C(=O)N[C@]5(C(=O)O)C[C@H]5/C=C\CCCCC[C@H](NC(=O)OC5CCCC5)C(=O)N4C3)cc(-c3csc(NC(C)C)n3)nc2c1` [CILUPREVIR]: the pEC50 in assay [2] was 7.77.
